Patent US20070014825A1, “Ant bait attractive to many species of ants and useful in their rapid control” (priority 2005, published 2007)

Key:
[1] = test system: ants; assay: Repulsion or loss of attractant activity of bait additives to ants; format: in vivo; details: trace amounts added to ant baits
[2] = test system: Carpenter Ant; assay: Liquid carpenter ant bait placed on ant trail: distance traveled after ingestion and kill; format: in vivo, Carpenter Ant (Genus Componatus)
Method: The above liquid carpenter ant bait was not formulated with a fragrance or dye, although both these additives may can be added. Soak the liquid ant bait in an absorbent wick, cotton ball or tissue and place on ant trail.
A carpenter ant ingested bait 7a for approximately 20 minutes, walked approximately 1.5-2 feet and was killed. Another carpenter ant ingested bait 7b for approximately 20 minutes, walked 20-30 feet, disappearing in the brush.
The ant baits of the above examples were tested in their natural environment where the particular ants were found. The baits were distributed in small amounts in the areas where the ants were seen to be active. All of the baits were readily accepted by the various ants. Gradually in all of the examples the numbers of ants in the treated areas was reduced to the point that none could be found.

| Structure (SMILES) | Loss in attractant activity of ant bait [1] | Time after Bait Ingestion at which ant disappeared (kill not observed) ([2]; Level of toxicant in Bait 0.2%) | Time of Ingestion of Bait by Ant ([2]; Level of toxicant in Bait 0.2%) | Distance Traveled ([2]; Level of toxicant in Bait 0.2%, ant disappeared) | Nest Killed ([2]; Level of toxicant in Bait 0.2%, entire nest killed) | Distance Traveled ([2]; Level of toxicant in Bait 1.2%) | Nest Killed ([2]; Level of toxicant in Bait 1.2%) | Time Ant Killed after Bait Ingestion ([2]; Level of toxicant in Bait 1.2%) | Time of Ingestion of Bait by Ant ([2]; Level of toxicant in Bait 1.2%) |
| --- | --- | --- | --- | --- | --- | --- | --- | --- | --- |
| O=c1[nH]sc2ccccc12 [1,2-benzisothiazolin-3-one] | Little or no loss in attractant activity |  |  |  |  |  |  |  |  |
| COP(=O)(NC(C)=O)SC (stereo not drawn) [acephate] |  | after 35-40 minutes | ˜20 minutes | 20-30 feet | Yes | 1.5-2 feet | No | ˜22-23 minutes | ˜20 minutes |
